Measurements published in patent publication US5001115A, “Prodrugs of biologically active hydroxyaromatic compounds” (University of Florida, priority 1989, dated 1991).
Values belong to the compound of their own block, whether it stands above or below them.

Experiment: Hydrolysis in pH=7.1 buffer at room temperature
Format: physicochemical
Protocol: The compounds: [drawing 4] were prepared similarly to the above product and their hydrolytic properties under similar conditions were evaluated.

half-life (similar conditions (pH=7.1 buffer, room temperature)): ~6 h
SMILES: O=C1CCC(=O)N1COc1ccc([N+](=O)[O-])cc1 [(b)]

hydrolytic stability (in words) (pH=7.1, similar conditions): completely stable
SMILES: O=C(NCOc1ccc([N+](=O)[O-])cc1)c1ccccc1 [Compound (a)]

half-life (pH=7.1 buffer, room temperature): ~0.283 h
SMILES: O=C1c2ccccc2S(=O)(=O)N1COc1ccc([N+](=O)[O-])cc1 [Example 1, 4-Nitro-1-[1',1',3'-trioxo-(2'H)-1',2'-benzisothiazol-2'-yl]methoxybenzene]
